Test results taken from US20030171218A1, “Substituted 3-heteroaryl(amino- or oxy)pyrrolidin-2-ones, their preparation and use as herbicides or plant growth regulators” (priority 2001, published 2003).

What was measured:
[1] = test system: weed plants such as Digitaria sanguinalis, Echinochloa crus-galli, Setaria faberi, Setaria viridis, Sorghum halepense, Abutilon theophrasti, Amaranthum …; assay: Pre-emergence effect on weeds (greenhouse pot test); format: in vivo, monocotyledonous and dicotyledonous weed plants; conditions: application rate of 1 kg or less of active substance per hectare; scored visually after 3 to 4 weeks by comparison with untreated controls
Text: Seeds or rhizome pieces of monocotyledonous and dicotyledonous weed plants are placed in sandy loam soil in plastic pots and covered with soil. The compounds according to the invention which are formulated in the form of wettable powders or emulsion concentrates are then applied to the surface of the soil cover in the form of aqueous suspensions or emulsions at an application rate of 600 to 800 l of water/ha (converted), in various dosages.
After the treatment, the pots are placed in a greenhouse and kept under good growth conditions for the weeds. After the test plants have emerged, the damage to the plants or the negative effect on the emergence is scored visually after a test period of 3 to 4 weeks by comparison with untreated controls. As shown by the test results, compounds according to the invention have good herbicidal pre-emergence activity against a broad spectrum of weed grasses and broad-leafed weeds.

[2] = test system: harmful plants such as Digitaria sanguinalis, Echinochloa crus-galli, Setaria faberi, Setaria viridis, Sorghum halepense, Abutilon theophrasti, Amaranthum …; assay: Post-emergence effect on weeds (greenhouse pot test); format: in vivo, monocotyledonous and dicotyledonous weeds; conditions: application rate of 1 kg and less of active substance per hectare; treated at three-leaf stage; scored visually after about 3 to 4 weeks by comparison with untreated controls
Protocol: Seeds or rhizome pieces of monocotyledonous and dicotyledonous weeds are placed in sandy loam soil in plastic pots, covered with soil and grown in a greenhouse under good growth conditions. Three weeks after sowing, the test plants are treated at the three-leaf stage. The compounds according to the invention which were formulated as wettable powders or emulsion concentrates are sprayed, at various dosages, onto the green parts of the plants at an application rate of 600 to 800 l of water/ha (converted). After the test plants have remained in the greenhouse for about 3 to 4 weeks under optimum growth conditions, the effect of the preparations is scored visually by comparison with untreated controls. The agents according to the invention also have good herbicidal activity post-emergence against a broad spectrum of economically important weed grasses and broad-leafed weeds.

Compound | herbicidal activity pre-emergence [1] | herbicidal activity post-emergence [2]
Cc1nc(N)nc(NC2CCN(c3cccc(F)c3)C2=O)n1 (centres unmarked) [Example A1] | very good herbicidal activity | very good herbicidal activity
Cc1nc(N)nc(NC2CCN(c3ccccc3)C2=O)n1 (centres unmarked) [Example A2] | very good herbicidal activity | very good herbicidal activity
Cc1nc(N)nc(NC2CCN(c3cccc(C(F)(F)F)c3)C2=O)n1 (centres unmarked) [Example A3] | very good herbicidal activity | very good herbicidal activity
Cc1cccc(N2CCC(Nc3nc(C)nc(N)n3)C2=O)c1 (centres unmarked) [Example A4] | very good herbicidal activity | very good herbicidal activity
Cc1cc(C)cc(N2CCC(Nc3nc(C)nc(N)n3)C2=O)c1 (centres unmarked) [Example A5] | very good herbicidal activity | very good herbicidal activity
Cc1nc(N)nc(NC2CCN(c3ccc(F)c(C)c3)C2=O)n1 (centres unmarked) [Example A6] | very good herbicidal activity | very good herbicidal activity
COc1cccc(N2CCC(Nc3nc(C)nc(N)n3)C2=O)c1 (centres unmarked) [Example A7] | very good herbicidal activity | very good herbicidal activity
Cc1nc(N)nc(NC2CCN(c3cccc(OC(F)(F)F)c3)C2=O)n1 (centres unmarked) [Example A8] | very good herbicidal activity | very good herbicidal activity
Cc1nc(N)nc(NC2CCN(c3cccc(Cl)c3)C2=O)n1 (centres unmarked) [Example A9] | very good herbicidal activity | very good herbicidal activity
CC(F)c1nc(N)nc(NC2CCN(c3cccc(F)c3)C2=O)n1 (centres unmarked) [Example A10] | very good herbicidal activity | very good herbicidal activity
CC(F)c1nc(N)nc(NC2CCN(c3ccccc3)C2=O)n1 (centres unmarked) [Example A11] | very good herbicidal activity | very good herbicidal activity
CC(F)c1nc(N)nc(NC2CCN(c3cccc(C(F)(F)F)c3)C2=O)n1 (centres unmarked) [Example A12] | very good herbicidal activity | very good herbicidal activity
Cc1cccc(N2CCC(Nc3nc(N)nc(C(C)F)n3)C2=O)c1 (centres unmarked) [Example A13] | very good herbicidal activity | very good herbicidal activity
Cc1cc(C)cc(N2CCC(Nc3nc(N)nc(C(C)F)n3)C2=O)c1 (centres unmarked) [Example A14] | very good herbicidal activity | very good herbicidal activity
Cc1cc(N2CCC(Nc3nc(N)nc(C(C)F)n3)C2=O)ccc1F (centres unmarked) [Example A15] | very good herbicidal activity | very good herbicidal activity
COc1cccc(N2CCC(Nc3nc(N)nc(C(C)F)n3)C2=O)c1 (centres unmarked) [Example A16] | very good herbicidal activity | very good herbicidal activity
CC(F)c1nc(N)nc(NC2CCN(c3cccc(OC(F)(F)F)c3)C2=O)n1 (centres unmarked) [Example A17] | very good herbicidal activity | very good herbicidal activity
CC(F)c1nc(N)nc(NC2CCN(c3cccc(Cl)c3)C2=O)n1 (centres unmarked) [Example A18] | very good herbicidal activity | very good herbicidal activity
CC(C)c1nc(N)nc(NC2CCN(c3cccc(F)c3)C2=O)n1 (centres unmarked) [Example A19] | very good herbicidal activity | very good herbicidal activity
CC(C)c1nc(N)nc(NC2CCN(c3cccc(C(F)(F)F)c3)C2=O)n1 (centres unmarked) [Example A21] | very good herbicidal activity | very good herbicidal activity
Cc1cccc(N2CCC(Nc3nc(N)nc(C(C)C)n3)C2=O)c1 (centres unmarked) [Example A22] | very good herbicidal activity | very good herbicidal activity
Cc1cc(C)cc(N2CCC(Nc3nc(N)nc(C(C)C)n3)C2=O)c1 (centres unmarked) [Example A23] | very good herbicidal activity | very good herbicidal activity

Compound | herbicidal activity pre-emergence [1] | herbicidal activity post-emergence [2]
Cc1cc(N2CCC(Nc3nc(N)nc(C(C)C)n3)C2=O)ccc1F (centres unmarked) [Example A24] | very good herbicidal activity | very good herbicidal activity
COc1cccc(N2CCC(Nc3nc(N)nc(C(C)C)n3)C2=O)c1 (centres unmarked) [Example A25] | very good herbicidal activity | very good herbicidal activity
CC(C)c1nc(N)nc(NC2CCN(c3cccc(OC(F)(F)F)c3)C2=O)n1 (centres unmarked) [Example A26] | very good herbicidal activity | very good herbicidal activity
CC(C)c1nc(N)nc(NC2CCN(c3cccc(Cl)c3)C2=O)n1 (centres unmarked) [Example A27] | very good herbicidal activity | very good herbicidal activity
CC(C)(F)c1nc(N)nc(NC2CCN(c3cccc(F)c3)C2=O)n1 (centres unmarked) [Example A28] | very good herbicidal activity | very good herbicidal activity
Cc1cc(N2CCC(Nc3nc(N)nc(C(C)(C)F)n3)C2=O)ccc1F (centres unmarked) [Example A29] | very good herbicidal activity | very good herbicidal activity
COc1cccc(N2CCC(Nc3nc(N)nc(C(C)(C)F)n3)C2=O)c1 (centres unmarked) [Example A30] | very good herbicidal activity | very good herbicidal activity
CC(C)(F)c1nc(N)nc(NC2CCN(c3cccc(OC(F)(F)F)c3)C2=O)n1 (centres unmarked) [Example A31] | very good herbicidal activity | very good herbicidal activity
CC(C)(F)c1nc(N)nc(NC2CCN(c3cccc(C(F)(F)F)c3)C2=O)n1 (centres unmarked) [Example A32] | very good herbicidal activity | very good herbicidal activity
Cc1cccc(N2CCC(Nc3nc(N)nc(C(C)(C)F)n3)C2=O)c1 (centres unmarked) [Example A33] | very good herbicidal activity | very good herbicidal activity
Cc1cc(C)cc(N2CCC(Nc3nc(N)nc(C(C)(C)F)n3)C2=O)c1 (centres unmarked) [Example A34] | very good herbicidal activity | very good herbicidal activity
CC(C)(F)c1nc(N)nc(NC2CCN(c3ccccc3)C2=O)n1 (centres unmarked) [Example A35] | very good herbicidal activity | very good herbicidal activity
CC(C)(F)c1nc(N)nc(NC2CCN(c3cccc(Cl)c3)C2=O)n1 (centres unmarked) [Example A36] | very good herbicidal activity | very good herbicidal activity
CC(F)c1nc(N)nc(OC2CCN(c3cccc(C(F)(F)F)c3)C2=O)n1 (centres unmarked) [Example A37] | very good herbicidal activity | very good herbicidal activity
Cc1cccc(N2CCC(Oc3nc(N)nc(C(C)F)n3)C2=O)c1 (centres unmarked) [Example A38] | very good herbicidal activity | very good herbicidal activity
Cc1cc(C)cc(N2CCC(Oc3nc(N)nc(C(C)F)n3)C2=O)c1 (centres unmarked) [Example A39] | very good herbicidal activity | very good herbicidal activity
Cc1cc(N2CCC(Oc3nc(N)nc(C(C)F)n3)C2=O)ccc1F (centres unmarked) [Example A40] | very good herbicidal activity | very good herbicidal activity
COc1cccc(N2CCC(Oc3nc(N)nc(C(C)F)n3)C2=O)c1 (centres unmarked) [Example A41] | very good herbicidal activity | very good herbicidal activity
CC(F)c1nc(N)nc(OC2CCN(c3cccc(OC(F)(F)F)c3)C2=O)n1 (centres unmarked) [Example A42] | very good herbicidal activity | very good herbicidal activity
CC(F)c1nc(N)nc(OC2CCN(c3cccc(Cl)c3)C2=O)n1 (centres unmarked) [Example A43] | very good herbicidal activity | very good herbicidal activity
CC(F)c1nc(N)nc(OC2CCN(c3cccc(F)c3)C2=O)n1 (centres unmarked) [Example A44] | very good herbicidal activity | very good herbicidal activity
